The structures appear in SMILES notation. Structures can show the parent of a compound that is named as a salt.

The target in the experiment is serotonin 5-HT2C receptor (Homo sapiens, UniProt P28335, I156V/I160V/N158S). The experiment in a line: cell-based. The note with it: CHO, read-out: ratio to maximum response by 5-HT.
Sequence of serotonin 5-HT2C receptor (P28335 33-458 I156V/N158S/I160V limits assumed): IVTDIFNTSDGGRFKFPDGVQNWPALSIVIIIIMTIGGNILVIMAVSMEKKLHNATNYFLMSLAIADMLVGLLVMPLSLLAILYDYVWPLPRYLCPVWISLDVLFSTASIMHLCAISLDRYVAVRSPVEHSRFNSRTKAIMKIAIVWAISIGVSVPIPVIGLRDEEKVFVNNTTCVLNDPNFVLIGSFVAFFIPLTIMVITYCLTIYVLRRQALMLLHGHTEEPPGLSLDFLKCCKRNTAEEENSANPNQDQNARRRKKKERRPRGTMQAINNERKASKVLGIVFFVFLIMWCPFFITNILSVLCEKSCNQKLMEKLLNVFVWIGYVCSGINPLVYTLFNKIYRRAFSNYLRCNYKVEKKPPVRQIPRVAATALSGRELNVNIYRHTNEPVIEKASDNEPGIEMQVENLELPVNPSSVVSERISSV
Take `FC(F)(F)c1ccc2c(c1)CN1CCNCC1CO2` (stereo not drawn) [Example 9, 8-(trifluoromethyl)-1,2,3,4,12,12a-hexahydro-6H-pyrazino[2,1-c][1,4]benzoxazepine dihydrochloride]: the Emax was 91.5%.
For the molecule `O=C1c2ccc(Cl)cc2OCC2CNCCN12` (stereo not drawn) [Example 5, 9-chloro-1,2,3,4,12,12a-hexahydro-6H-pyrazino[2,1-c][1,4]benzoxazepin-6-one hydrochloride], the Emax came to 101%.
Turning to `Clc1ccc2c(c1)CN1CCNCC1CO2` (stereo not drawn) [Example 7, 8-chloro-1,2,3,4,12,12a-hexahydro-6H-pyrazino[2,1-c][1,4]benzoxazepine dihydrochloride], the Emax turned out to be 107%.
As to `Cc1cccc2c1OCC1CNCCN1C2=O` (stereo not drawn) [Example 37, 10-methyl-1,2,3,4,12,12a-hexahydro-6H-pyrazino[2,1-c][1,4]benzoxazepin-6-one hydrochloride], the Emax is 98.3%.
For `c1ccc2c(c1)CN1CCNCC1CO2` (stereo not drawn) [Example 2, 1,2,3,4,12,12a-hexahydro-6H-pyrazino[2,1-c][1,4]benzoxazepine dihydrochloride], the Emax was determined as 116%.
As to `O=C1c2c(Br)cccc2OCC2CNCCN12` (stereo not drawn) [Example 41, 7-bromo-1,2,3,4,12,12a-hexahydro-6H-pyrazino[2,1-c][1,4]benzoxazepin-6-one hydrochloride], the Emax came to 96%.
As for `Cc1ccc2c(c1)C(=O)N1CCNCC1CO2` (stereo not drawn) [Example 13, 8-methyl-1,2,3,4,12,12a-hexahydro-6H-pyrazino[2,1-c][1,4]benzoxazepin-6-one hydrochloride], the Emax came out at 96.9%.
To `O=C1c2ccccc2OCC2CNCCN12` (stereo not drawn) [Example 1, 1,2,3,4,12,12a-hexahydro-6H-pyrazino[2,1-c][1,4]benzoxazepin-6-one hydrochloride] belongs 114%; to `COc1ccc2c(c1)C(=O)N1CCNCC1CO2` (stereo not drawn) [Example 31, 8-methoxy-1,2,3,4,12,12a-hexahydro-6H-pyrazino[2,1-c][1,4]benzoxazepin-6-one hydrochloride], 93.8%; to `O=C1c2c(cccc2C(F)(F)F)OCC2CNCCN12` (stereo not drawn) [Example 42, 7-(trifluoromethyl)-1,2,3,4,12,12a-hexahydro-6H-pyrazino[2,1-c][1,4]benzoxazepin-6-one hydrochloride], 88.4%.
To `O=C1c2cc(C(F)(F)F)ccc2OCC2CNCCN12` (stereo not drawn) [Example 8, 8-(trifluoromethyl)-1,2,3,4,12,12a-hexahydro-6H-pyrazino[2,1-c][1,4]benzoxazepin-6-one hydrochloride] belongs 96.5%; to `O=C1c2cc(Cl)ccc2OCC2CNCCN12` (stereo not drawn) [Example 6, 8-chloro-1,2,3,4,12,12a-hexahydro-6H-pyrazino[2,1-c][1,4]benzoxazepin-6-one hydrochloride], 99.4%.
To `O=C1c2c(Cl)cccc2OCC2CNCCN12` (stereo not drawn) [Example 4, 7-chloro-1,2,3,4,12,12a-hexahydro-6H-pyrazino[2,1-c][1,4]benzoxazepin-6-one hydrochloride] belongs 94.6%; to `O=C1c2cc(Br)ccc2OCC2CNCCN12` (stereo not drawn) [Example 10, 8-bromo-1,2,3,4,12,12a-hexahydro-6H-pyrazino[2,1-c][1,4]benzoxazepin-6-one hydrochloride], 107%.
As to `O=C1c2cccc(Cl)c2OCC2CNCCN12` (stereo not drawn) [Example 3, 10-chloro-1,2,3,4,12,12a-hexahydro-6H-pyrazino[2,1-c][1,4]benzoxazepin-6-one hydrochloride], the Emax was determined as 98.2%.

The record behind these values is patent US20090318412A1, “Tricyclic heterocyclic compound and use thereof” (priority 2006, published 2009).
